Test results from article PMC10223019, “Preclinical Evaluation of a PSMA-Targeting Homodimer with an Optimized Linker for Imaging of Prostate Cancer” (Molecules, 2023).
Where “and” joins values, the source holds several entries; their conditions need not be identical. Equal values may be shown once.

Key:
[1] = Stability in mouse serum, radio-HPLC; format: in vitro ADME; settings: 24 h post-incubation, 37 °C, indium-111 labeled, intact fraction
Protocol: [^111In]In-22 or [^111In]In-30 (~35 MBq, 70 µL) was mixed with 330 μL of mouse serum and incubated at 37 °C for up to 24 h. After 1, 4, and 24 h incubation, 50 μL of the mouse serum solution was added to a separate vial containing 50 µL of acetonitrile. The sample was centrifuged at 5000× g for 20 min. The supernatant was analyzed by radio-HPLC.

[2] = LogD7.4 by shake-flask method (PBS/n-octanol); format: physicochemical; settings: LogD7.4, PBS pH 7.4/n-octanol, indium-111 labeled compound
Protocol: The distribution coefficients (LogD7.4 values) were determined by a shake-flask method, in which 2 μL (~0.5 MBq) of the labeling solution ([^111In]In-22 or [^111In]In-30) were added to an Eppendorf tube containing 1 mL of PBS (0.01 M, pH 7.4)/n-octanol (v/v, 1:1). After vigorous vortexing, the solution was centrifuged at 2500× g for 15 min for phase separation. Samples (3 × 10 μL) of the two phases were taken out and measured in a gamma counter. LogD7.4 values were calculated by using the following equation: LogD7.4 = log [(counts in octanol phase)/(counts in aqueous phase)] and the experiment was performed in triplicate.

[3] = tested on: PSMA expressing LS174T cells; assay: Internalization and cell uptake assay; format: cell-based, human; settings: 2 h 37 °C
Protocol: LS174T human colon carcinoma cells transfected with human PSMA were obtained from Dr. Sandra Heskamp (Radboud UMC, Nijmegen). Cells were cultured in RPMI-1640 media supplemented with 2 mM glutamine, 10% fetal bovine serum (FBS) and 0.3 mg/mL G418 (Geneticin, Sigma Aldrich, St. Louis, MO, USA).
Cells were seeded (1.2 × 10^6 cells/well) and cultured to confluency for 24 h prior to experiments. We prepared 10^−9 M solutions of [^111In]In-PSMA-617, [^111In]In-22, and [^111In]In-30 in internalization media (RPMI, 20 mM HEPES, 1% BSA, pH 7.4). The media were removed from each well, and they were rinsed twice with PBS at rt. 2 mL of the radioactive compound was then added to each well and incubated at 37 °C for 2 h. For the internalization assay, the media containing radioactive compound were removed, and each well was washed twice with cold PBS. A total of 1 mL of Glycine buffer (50 mM glycine, 100 mM NaCl, pH 2.8) was added immediately and incubated for 10 min at rt. The glycine wash was then collected into counting tubes (membrane-bound fraction). An extra wash was performed and collected in the same tubes. A total of 1 mL of NaOH (1 M) was then added to each tube and left for 15 min at rt. The lysate (internalized fraction) was then collected in separate counting tubes, together with one extra NaOH wash. Data were normalized to 1,000,000 cells and percentage added dose.

[4] = tested on: BALB/c nude mice bearing LS174T PSMA-positive tumor xenografts; assay: Ex vivo biodistribution studies; format: in vivo
Protocol: Animal experiments were performed in 8–10 weeks old male BALB/c nude mice (Janvier Labs, Le Genest-Saint-Isle, France). Animals were housed in individually ventilated cages (Blue line IVC, 4 mice per cage) under nonsterile standard conditions with cage enrichment present and free access to chlorophyll-free animal chow (Sniff GmbH, Soest, Germany) and water and acclimated for 1 week before experiments. Mice were subcutaneously inoculated with 4.0 × 10^6 LS174T cells in the right flank, diluted in 100 μL of cell suspension. Seven days after tumor cell inoculation, when xenografts were approximately 0.2–0.3 cm^3, the tracers were injected intravenously via the tail vein. All experiments were approved by the institutional Animal Welfare Committee and were conducted in accordance with the guidelines of the Revised Dutch Act on Animal Experimentation (WOD).
Mice were intravenously injected with ~1 nmol of either [^111In]In-PSMA-617, [^111In]In-22 or [^111In]In-30 with molar activity of 5 MBq/nmol for ex vivo biodistribution studies. Mice (n = 4/timepoint) were euthanized by cervical dislocation at 1, 4, and 24 h p.i. A block group was included, and mice were euthanized at 4 h p.i. Organs were collected in tubes and counted in the gamma counter, where the calibration factor was determined by measuring different known activities of indium-111.

[5] = Stability in phosphate-buffered saline (PBS), radio-HPLC; format: physicochemical; settings: 24 h post-incubation, 37 °C, indium-111 labeled, intact fraction
Protocol: [^111In]In-22 or [^111In]In-30 (~10 MBq, 20 µL) was mixed with 80 μL of PBS (0.01 M, pH 7.4) and incubated at 37 °C for up to 24 h. A sample of the PBS solution was loaded directly onto the radio-HPLC at 1, 4, and 24 h post-incubation.

[6] = 4 h p.i. block group (excess unlabeled PSMA ligand)

Stability in Mouse Serum (%) [1]: 90.1%
logD [2]: −2.44 ± 0.07
Blood uptake ([4]; 1 h p.i., i.v. ~1 nmol): 4.84 ± 1.44 % ID/g
Bone uptake ([4]; 1 h p.i., i.v. ~1 nmol): 3.00 ± 0.53 % ID/g
Heart uptake ([4]; 1 h p.i., i.v. ~1 nmol): 2.58 ± 0.79 % ID/g
Intestines uptake ([4]; 1 h p.i., i.v. ~1 nmol): 0.87 ± 0.08 % ID/g
Kidney uptake ([4]; 1 h p.i., i.v. ~1 nmol): 138.54 ± 1.44 % ID/g
Liver uptake ([4]; 1 h p.i., i.v. ~1 nmol): 3.94 ± 0.26 % ID/g
Lung uptake ([4]; 1 h p.i., i.v. ~1 nmol): 2.81 ± 0.36 % ID/g
Muscle uptake ([4]; 1 h p.i., i.v. ~1 nmol): 1.13 ± 0.22 % ID/g
Pancreas uptake ([4]; 1 h p.i., i.v. ~1 nmol): 1.47 ± 0.33 % ID/g
Prostate uptake ([4]; 1 h p.i., i.v. ~1 nmol): 3.53 ± 2.05 % ID/g
Skin uptake ([4]; 1 h p.i., i.v. ~1 nmol): 4.44 ± 1.06 % ID/g
Spleen uptake ([4]; 1 h p.i., i.v. ~1 nmol): 3.30 ± 0.59 % ID/g
Stomach uptake ([4]; 1 h p.i., i.v. ~1 nmol): 0.47 ± 0.34 % ID/g
Tumor uptake ([4]; 1 h p.i., i.v. ~1 nmol): 4.95 ± 1.01 % ID/g
Blood uptake [4, 6]: 0.78 ± 0.04 % ID/g
Bone uptake [4, 6]: 1.27 ± 0.23 % ID/g
Heart uptake [4, 6]: 0.82 ± 0.10 % ID/g
Intestines uptake [4, 6]: 0.48 ± 0.03 % ID/g
Kidney uptake [4, 6]: 120.93 ± 4.75 % ID/g
Liver uptake [4, 6]: 1.84 ± 0.07 % ID/g
Lung uptake [4, 6]: 0.84 ± 0.07 % ID/g
Muscle uptake [4, 6]: 0.47 ± 0.08 % ID/g
Pancreas uptake [4, 6]: 0.54 ± 0.07 % ID/g
Prostate uptake [4, 6]: 0.94 ± 0.30 % ID/g
Skin uptake [4, 6]: 1.42 ± 0.18 % ID/g
Spleen uptake [4, 6]: 1.20 ± 0.14 % ID/g
Stomach uptake [4, 6]: 0.33 ± 0.12 % ID/g
Tumor uptake [4, 6]: 1.42 ± 0.14 % ID/g
Blood uptake ([4]; 4 h p.i., i.v. ~1 nmol): 1.02 ± 0.29 % ID/g
Bone uptake ([4]; 4 h p.i., i.v. ~1 nmol): 1.44 ± 0.54 % ID/g
Heart uptake ([4]; 4 h p.i., i.v. ~1 nmol): 0.96 ± 0.22 % ID/g
Intestines uptake ([4]; 4 h p.i., i.v. ~1 nmol): 0.92 ± 0.58 % ID/g
Kidney uptake ([4]; 4 h p.i., i.v. ~1 nmol): 132.89 ± 11.12 % ID/g
Liver uptake ([4]; 4 h p.i., i.v. ~1 nmol): 2.41 ± 0.35 % ID/g
Lung uptake ([4]; 4 h p.i., i.v. ~1 nmol): 0.77 ± 0.52 % ID/g
Muscle uptake ([4]; 4 h p.i., i.v. ~1 nmol): 0.64 ± 0.30 % ID/g
Pancreas uptake ([4]; 4 h p.i., i.v. ~1 nmol): 0.66 ± 0.24 % ID/g
Prostate uptake ([4]; 4 h p.i., i.v. ~1 nmol): 1.27 ± 0.69 % ID/g
Skin uptake ([4]; 4 h p.i., i.v. ~1 nmol): 1.92 ± 0.49 % ID/g
Spleen uptake ([4]; 4 h p.i., i.v. ~1 nmol): 1.40 ± 0.20 % ID/g
Stomach uptake ([4]; 4 h p.i., i.v. ~1 nmol): 0.31 ± 0.08 % ID/g
Tumor uptake ([4]; 4 h p.i., i.v. ~1 nmol): 2.94 ± 0.36 % ID/g
Tumor-to-muscle (T/M) ratio ([4]; 24 h p.i.): 15
Blood uptake ([4]; 24 h p.i., i.v. ~1 nmol): 0.09 ± 0.01 % ID/g
Bone uptake ([4]; 24 h p.i., i.v. ~1 nmol): 0.60 ± 0.04 % ID/g
Heart uptake ([4]; 24 h p.i., i.v. ~1 nmol): 0.21 ± 0.01 % ID/g
Intestines uptake ([4]; 24 h p.i., i.v. ~1 nmol): 0.19 ± 0.06 % ID/g
Kidney uptake ([4]; 24 h p.i., i.v. ~1 nmol): 26.86 ± 2.37 % ID/g
Liver uptake ([4]; 24 h p.i., i.v. ~1 nmol): 0.80 ± 0.04 % ID/g
Lung uptake ([4]; 24 h p.i., i.v. ~1 nmol): 0.28 ± 0.03 % ID/g
Muscle uptake ([4]; 24 h p.i., i.v. ~1 nmol): 0.15 ± 0.03 % ID/g
Pancreas uptake ([4]; 24 h p.i., i.v. ~1 nmol): 0.17 ± 0.00 % ID/g
Prostate uptake ([4]; 24 h p.i., i.v. ~1 nmol): 0.40 ± 0.10 % ID/g
Skin uptake ([4]; 24 h p.i., i.v. ~1 nmol): 0.77 ± 0.13 % ID/g
Spleen uptake ([4]; 24 h p.i., i.v. ~1 nmol): 0.58 ± 0.04 % ID/g
Stomach uptake ([4]; 24 h p.i., i.v. ~1 nmol): 0.11 ± 0.07 % ID/g
Tumor uptake ([4]; 24 h p.i., i.v. ~1 nmol): 1.57 ± 0.17 % ID/g
Tumor-to-muscle (T/M) ratio ([4]; at 1 and 4 h p.i.): 4–5
Stability in PBS (%) [5]: 90.8%
Compound: CC(C)CC(NC(=O)C(Cc1ccccc1)NC(=O)C(CC(=O)O)NC(=O)CCCCCSC1=NNC(SCCCCCC(=O)NC(CC(=O)O)C(=O)NC(Cc2ccccc2)C(=O)NC(CC(C)C)C(O)CC(=O)NCCCCCC(=O)NCCCCC(NC(=O)NC(CCC(=O)O)C(=O)O)C(=O)O)=C2CCC(OC(=O)NCCCNC(=O)CN3CCN(CC(=O)[O-])CCN(CC(=O)[O-])CCN(CC(=O)[O-])CC3)CCCC12)C(O)CC(=O)NCCCCCC(=O)NCCCCC(NC(=O)NC(CCC(=O)O)C(=O)O)C(=O)O.[111In+3] (stereo not drawn) [[^111In]In-30]
Internalized fraction ([3]; 10^-9 M, NaOH lysate): 3.51 ± 0.68 % AD
Membrane-bound uptake ([3]; 10^-9 M, glycine wash): 0.26 ± 0.09 % AD
Total uptake ([3]; 10^-9 M, normalized to 1,000,000 cells): 3.79 ± 0.74 % AD
Internalized fraction as share of total uptake (internalization) [3]: 92% and 92.6%
Membrane-bound uptake as share of total uptake [3]: 7.4%
